Patent US20250382344A1, “Soluble GLP1/GIP/NPY2 Receptor Triple Agonists” (Boehringer Ingelheim International GmH, priority 2024, published 2025)
Read-outs that look alike come from different tables or passages of the source. Blank lines part the entries; values can stand above or below the molecule they belong to.

Columns and labels:
[1] = biological target: T1, hGIPR (Homo sapiens, UniProt P48546); experiment: hGIPR CreLuc assay in 0.5% and 100% plasma (CHO CRE-luciferase reporter cells); assay type: cell-based; conditions: 0.5% human plasma, read-out: hGIPR 0.5% hP
T1 construct: expressed in transfected cells; host or cells: CHO CRE-luciferase reporter cells
T1 sequence (P48546 22-466): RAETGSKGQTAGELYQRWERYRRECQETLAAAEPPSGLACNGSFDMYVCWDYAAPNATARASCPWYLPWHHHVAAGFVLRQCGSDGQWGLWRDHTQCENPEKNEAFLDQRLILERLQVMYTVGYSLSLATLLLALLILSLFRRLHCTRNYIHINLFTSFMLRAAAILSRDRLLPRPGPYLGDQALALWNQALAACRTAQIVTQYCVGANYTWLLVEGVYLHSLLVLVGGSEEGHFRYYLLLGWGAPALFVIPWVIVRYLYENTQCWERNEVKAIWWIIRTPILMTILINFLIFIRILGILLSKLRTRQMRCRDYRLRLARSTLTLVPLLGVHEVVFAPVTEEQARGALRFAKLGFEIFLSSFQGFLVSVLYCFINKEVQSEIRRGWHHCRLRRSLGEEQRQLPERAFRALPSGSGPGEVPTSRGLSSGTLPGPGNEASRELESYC

[2] = biological target: T2, hNPY2R (Homo sapiens, UniProt P49146); experiment: hNPY2R CreLuc assay in 0.5% and 100% plasma (HEK-293 CRE-luciferase reporter cells); assay type: cell-based; conditions: HEK-293 reporter cells
T2 construct: expressed in transfected cells; host or cells: HEK-293 CRE-luciferase reporter cells
T2 sequence (P49146 1-381): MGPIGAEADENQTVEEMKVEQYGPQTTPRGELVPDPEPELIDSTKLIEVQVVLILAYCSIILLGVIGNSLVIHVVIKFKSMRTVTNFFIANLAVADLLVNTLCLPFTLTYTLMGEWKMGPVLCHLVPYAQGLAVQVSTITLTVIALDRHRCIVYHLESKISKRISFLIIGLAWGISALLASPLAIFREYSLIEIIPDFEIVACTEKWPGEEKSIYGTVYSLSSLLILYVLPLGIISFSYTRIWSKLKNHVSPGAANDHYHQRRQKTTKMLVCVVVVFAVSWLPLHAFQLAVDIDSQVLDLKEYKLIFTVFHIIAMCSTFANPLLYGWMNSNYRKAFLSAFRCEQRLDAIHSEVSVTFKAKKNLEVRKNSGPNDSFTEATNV
Description: CHO and HEK-293 recombinant cell lines express a luciferase reporter gene under control of the CAMP responsive element (CRE). As a second recombinant protein the GLP-1 and NPY2 receptors were expressed in the reporter gene HEK cells, and the GIP receptor was expressed in the reporter gene CHO cells, respectively. Stimulation of these recombinant cells with an agonist leads to an increase of intracellular CAMP levels. In the presence of CAMP, the transcription factor CRE binding protein (CREB) binds to the CRE and to the CREB binding protein (CBP), which leads to transcription of the luciferase reporter gene. Peptides upon serial-dilution in 100% DMSO were transferred into 384-well assay plates with 5 μl pre-dispensed assay buffer (1×HBSS, 20 mM HEPES, pH7.4 supplemented with 0.5% human plasma) using acoustic dispensing on a Labcyte ECHO. Cryo-preserved transgenic reporter gene cells were thawed in assay buffer. 20 μl (10.000 cells/well) were added to the plate with the peptides and incubated for 4 hours at 37° C. in a humidified incubator. Following incubation, assay plates are equilibrated to room temperature, followed by addition of 25 μl of Bright-Glo™ Luciferase reagent, incubation at room temperature for 10 minutes and analysis of luminescence (Envision Reader). […] EC50 values were calculated by non-linear regression using sigmoid concentration-response with variable slope.
The same assays were run in the presence of 100% plasma with no additional buffer constituents.

[3] = Solubility in 0.1 M phosphate buffer at pH 7; assay type: physicochemical; conditions: 0.1 M phosphate buffer at pH 7, 10 mg/mL final peptide concentration, shaking 2 hours at room temperature, peptides as TFA-salts; measured sample pH 6.5-7.0
[4] = biological target: human GLP-1 receptor (human, UniProt P43220 24-463); experiment: cell-based or functional assay
[5] = biological target: T3, human GIP receptor (human, UniProt P48546 22-466); experiment: cell-based or functional assay
T3 sequence (looked up): T1 sequence (P48546 22-466)

[6] = biological target: T4, human neuropeptide Y2 receptor (human, UniProt P49146 1-381); experiment: cell-based or functional assay
T4 sequence (looked up): T2 sequence (P49146 1-381)

[7] = 0.5% human plasma, read-out: hNPY2R 0.5% hP

Molecule: CC[C@H](C)[C@H](NC(=O)[C@H](CO)NC(=O)[C@H](Cc1ccc(O)cc1)NC(=O)[C@H](CC(=O)O)NC(=O)[C@H](CO)NC(=O)[C@@H](NC(=O)[C@H](Cc1ccccc1)NC(=O)[C@@H](NC(=O)CNC(=O)[C@H](CCC(=O)O)NC(=O)C(C)(C)NC(=O)[C@@H](N)Cc1ccc(O)cc1)[C@@H](C)O)[C@@H](C)O)C(=O)NC(C)(C)C(=O)N[C@@H](CC(C)C)C(=O)N[C@@H](CCC(=O)O)C(=O)N[C@@H](CCCCN)C(=O)N[C@@H](CCC(N)=O)C(=O)N[C@@H](C)C(=O)N[C@@H](CCC(N)=O)C(=O)NC(C)(C)C(=O)N[C@@H](C)C(=O)N[C@@H](Cc1ccccc1)C(=O)N[C@H](C(=O)N[C@@H](CCCNC(=N)N)C(=O)N[C@@H](Cc1c[nH]cn1)C(=O)N[C@@H](CC(C)C)C(=O)N[C@@H](Cc1ccc(O)cc1)C(=O)N[C@@H](CC(N)=O)C(=O)N[C@@H](CCCCNC(=O)[C@@H](N)CCCCNC(=O)CC[C@H](NC(=O)CC[C@H](NC(=O)CC[C@H](NC(=O)CC[C@H](NC(=O)CC[C@H](NC(=O)CC[C@H](NC(=O)CCCCCCCCCCCCCCCCC(=O)O)C(=O)O)C(=O)O)C(=O)O)C(=O)O)C(=O)O)C(=O)O)C(=O)NC(C)(C)C(=O)N[C@H](C(=O)N[C@@H](CCCNC(=N)N)C(=O)N[C@@H](CCC(N)=O)C(=O)N[C@@H](CCCNC(=N)N)C(=O)N[C@@H](Cc1ccc(O)cc1)C(N)=O)[C@@H](C)O)C(C)C [Compound 58, Y-Aib-E-G-T-F-T-S-D-Y-S-I-Aib-L-E-K-Q-A-Q-Aib-A-F-V-R-H-L-Y-N-K(1,3)-Aib-T-R-Q-R-Y-NH2.C18DA-gGlu-gGlu-gGlu-gGlu-gGlu-gGlu-eLys(1,2)]
- EC50 ([2]; hNPY2R 100% hP (nM), 100% human plasma): 40 nM
- solubility at 2 h [3]: 3300 µg/mL

B1: Compound 68 (peptide)
peptide: YXEGTFTSDYSIXLEKQAQXAFVRHLIAKXTRQRY
modifications: Aib at 2, 13, 20, 30; Lys29 epsilon-amino acylated with C18DA-gGlu-gGlu-gGlu-gGlu-gGlu-gGlu-eLys; C-terminal amide
- EC50, CreLuc reporter, 0.5% hP [4]: 0.6 nM
- EC50, CreLuc reporter, 100% hP [4]: 3.3 nM
- EC50, CreLuc reporter, 0.5% hP [5]: 0.2 nM
- EC50, CreLuc reporter, 100% hP [5]: 3 nM
- EC50, CreLuc reporter, 0.5% hP [6]: 150 nM
- EC50, CreLuc reporter, 100% hP [6]: 690 nM

Continued, values first:

- EC50 [1]: 0.3 nM
- EC50 [2, 7]: 17.1 nM
- solubility at 2 h [3]: 5000 µg/mL
Molecule: CC[C@H](C)[C@H](NC(=O)[C@H](CO)NC(=O)[C@H](Cc1ccc(O)cc1)NC(=O)[C@H](CC(=O)O)NC(=O)[C@H](CO)NC(=O)[C@@H](NC(=O)[C@H](Cc1ccccc1)NC(=O)[C@@H](NC(=O)CNC(=O)[C@H](CCC(=O)O)NC(=O)C(C)(C)NC(=O)[C@@H](N)Cc1ccc(O)cc1)[C@@H](C)O)[C@@H](C)O)C(=O)N[C@@H](C)C(=O)N[C@@H](CC(C)C)C(=O)N[C@@H](CCC(=O)O)C(=O)N[C@@H](CCCCN)C(=O)N[C@@H](CCC(N)=O)C(=O)N[C@@H](C)C(=O)N[C@@H](CCC(N)=O)C(=O)NC(C)(C)C(=O)N[C@@H](C)C(=O)N[C@@H](Cc1ccccc1)C(=O)N[C@H](C(=O)N[C@@H](CCCNC(=N)N)C(=O)N[C@@H](Cc1c[nH]cn1)C(=O)N[C@@H](CC(C)C)C(=O)N[C@H](C(=O)N[C@@H](CC(N)=O)C(=O)N[C@@H](CCCCNC(=O)[C@@H](N)CCCCNC(=O)CC[C@H](NC(=O)CC[C@H](NC(=O)CC[C@H](NC(=O)CC[C@H](NC(=O)CC[C@H](NC(=O)CC[C@H](NC(=O)CCCCCCCCCCCCCCCCC(=O)O)C(=O)O)C(=O)O)C(=O)O)C(=O)O)C(=O)O)C(=O)O)C(=O)NC(C)(C)C(=O)N[C@H](C(=O)N[C@@H](CCCNC(=N)N)C(=O)N[C@@H](CCC(N)=O)C(=O)N[C@@H](CCCNC(=N)N)C(=O)N[C@@H](Cc1ccc(O)cc1)C(N)=O)[C@@H](C)O)[C@@H](C)CC)C(C)C [Compound 165, Y-Aib-E-G-T-F-T-S-D-Y-S-I-A-L-E-K-Q-A-Q-Aib-A-F-V-R-H-L-I-N-K(1,3)-Aib-T-R-Q-R-Y-NH2.C18DA-gGlu-gGlu-gGlu-gGlu-gGlu-gGlu-eLys(1,2)]

- EC50 [1]: 0.4 nM
- EC50 [2, 7]: 9.9 nM
Molecule: CC[C@H](C)[C@H](NC(=O)[C@H](CC(C)C)NC(=O)[C@H](Cc1c[nH]cn1)NC(=O)[C@H](CCCNC(=N)N)NC(=O)[C@@H](NC(=O)[C@H](Cc1ccccc1)NC(=O)[C@H](C)NC(=O)C(C)(C)NC(=O)[C@H](CCC(N)=O)NC(=O)[C@H](C)NC(=O)[C@H](CCC(N)=O)NC(=O)[C@H](CCCNC(=N)N)NC(=O)[C@H](CCC(=O)O)NC(=O)[C@H](CC(C)C)NC(=O)C(C)(C)NC(=O)[C@@H](NC(=O)[C@H](CO)NC(=O)[C@H](Cc1ccc(O)cc1)NC(=O)[C@H](CC(=O)O)NC(=O)[C@H](CO)NC(=O)[C@@H](NC(=O)[C@H](Cc1ccccc1)NC(=O)[C@@H](NC(=O)CNC(=O)[C@H](CCC(=O)O)NC(=O)C(C)(C)NC(=O)[C@@H](N)Cc1ccc(O)cc1)[C@@H](C)O)[C@@H](C)O)[C@@H](C)CC)C(C)C)C(=O)N[C@@H](CC(N)=O)C(=O)N[C@@H](CCCCNC(=O)[C@@H](N)CCCCNC(=O)CC[C@H](NC(=O)CC[C@H](NC(=O)CC[C@H](NC(=O)CC[C@H](NC(=O)CC[C@H](NC(=O)CC[C@H](NC(=O)CCCCCCCCCCCCCCCCCCC(=O)O)C(=O)O)C(=O)O)C(=O)O)C(=O)O)C(=O)O)C(=O)O)C(=O)NC(C)(C)C(=O)N[C@H](C(=O)N[C@@H](CCCNC(=N)N)C(=O)N[C@@H](CCC(N)=O)C(=O)N[C@@H](CCCNC(=N)N)C(=O)N[C@@H](Cc1ccc(O)cc1)C(N)=O)[C@@H](C)O [Compound 171, Y-Aib-E-G-T-F-T-S-D-Y-S-I-Aib-L-E-R-Q-A-Q-Aib-A-F-V-R-H-L-I-N-K(1,3)-Aib-T-R-Q-R-Y-NH2.C20DA-gGlu-gGlu-gGlu-gGlu-gGlu-gGlu-eLys(1,2)]
